In assay [1] the test system is Small cell lung carcinoma NCI-H82. Nature of the assay: MTT proliferation assay, small cell lung carcinoma. The class given is cell-based. To be noted: Homo sapiens, treatment initially, after 48 hours, 10% FBS, read-out: Mean Percent Inhibition of Growth. As for the experimental part:
Human malignant cell lines were obtained from American Type Tissue Culture Collection (Rockville, Md.). Melanoma cells lines CRL 1585 and 1619 were cultured in RPMI 1640 (GIBCO-BRL, Life Technologies, Grand Island, N.Y.) with 10% FBS and passed with nonenzymatic Cell Dissociation Solution® (Sigma). The prostate adenocarcinoma cell line CRL 1435 (PC-3) was also cultured in RPMI 1640 with 10% FBS but passed with 0.05% trypsin and 0.53 mM EDTA. The squamous lung carcinoma NCI-H520 and the adenosquamous lung carcinoma NCI-H596 cell lines were grown in RPMI 1640 supplemented with 10% FBS, 10 mM HEPES and 1.0 mM sodium pyruvate and passed with trypsin/EDTA. The small cell lung carcinoma NCI-H82 was cultured as a suspension in RPMI 1640 with 10% FBS. All of the above were grown in a 37° C. humidified environment containing 5% CO2/air. The breast carcinoma cell line MDA-MB-453 was grown in a 37° C. humidified environment with free gas exchange with atmospheric air using Leibovitz's L-15 medium with 2 mM L-glutamine and 10% FBS and was passed with trypsin/EDTA.
The effect of disulfiram (0.15 to 5.0 μM), diethyldithiocarbamate (DDC, 1.0 μM) or PDTC (0.625 to 5.0 μM) on proliferation of malignant cell lines was studied in cultures stimulated with 10% FBS. Cell numbers were quantitated 24-72 hours later. In some experiments disulfiram or PDTC were added immediately after cells were plated. In other experiments, cells were plated and allowed to grow for 24-72 hours before fresh media with disulfiram or PDTC was added, and cell numbers were assayed 24-72 hours later. […]
Proliferation of cultured cells was quantitated using a previously reported calorimetric method based upon metabolic reduction of the soluble yellow tetrazolium dye 3-[4,5-dimethylthiazol]-2yl-2,5-diphenyl tetrazolium bromide (MTT) to its insoluble purple formazan by the action of mitochondrial succinyl dehydrogenase (See, e.g., S. J. Hirst, et al., “Quantifying proliferation of cultured human and rabbit airway smooth muscle in response to serum and platelet derived growth factor,” Am. J. Respir. Cell Mol. Biol. 7:574-581 (1992); R. Dashtaki, et al. R., supra; S. S. Brar, et al., “Requirement for reactive oxygen species in serum-induced and platelet-derived growth factor-induced growth of airway smooth muscle,” J. Biol. Chem. 274:20017-20026 (1999)). […] MTT-containing medium was removed, 0.5 ml dimethylsulfoxide (DMSO) was added to each well, and the absorbance of the solubilized purple formazan dye was measured at 540 nm. […]
A general note: Tetrazolium assays rely on reduction of a dye to a coloured formazan, in cell work by metabolically active cells.

A further assay has as its system bcl-2. Nature of the assay: Immunoblot for bcl-2. The format is cell-based, human. As to conditions: cell lines studied; data not shown. How it is done: Cells were lysed and proteins were isolated and quantitated by immunoassay as previously detailed using 2 μg/ml of primary rabbit polyclonal antibodies against human bcl-2, p53, p21^WAF1/CiP1, cyclin A and cyclin B1, and peroxidase-labeled donkey polyclonal anti-rabbit IgG. Cells were placed on ice, washed twice with cold DPBS, scraped into 0.5 ml boiling buffer (10% [vol/vol] glycerol and 2% [wt/vol] sodium dodecyl sulfate [SDS] in 83 mM Tris, pH 6.8) and sheared by four passages through a pipette. Aliquots were removed for protein determination, using the BCA protein assay (Pierce). After 10% β-mercaptoethanol and 0.05% bromophenol blue were added, lysates were boiled for 5 min and stored at −80° C. until immunoblotting was performed. Proteins in defrosted samples were separated by SDS-polyacrylamide gel electrophoresis on 12% polyacrylamide gels (15 μg protein/lane) and electrotransferred to 0.45 μm Hybond ECL nitrocellulose membranes (Amersham Life Sciences) using the wet transblot method in transfer buffer (0.025 M Tris, 0.192 M glycine, 2.6 mM SDS, and 20%[vol/vol] methanol; pH 8.8) at 100 volts for 1 hour. […] Immunoblots were rinsed again as above and detected via an enhanced chemiluminescence method (ECL Western blotting detection system, Amersham Life Science, Buckinghamshire, England). […]
(In general: A western blot detects proteins with antibodies after separation by electrophoresis.)

The record followed here is patent US6548540B2, “Method of treating cancer using dithiocarbamate derivatives” (Charlotte-Mecklenburg Hospital Authority, priority 1998, dated 2003).

The term inhibition denotes the percentage by which the read-out fell short of the control.

As for `CCN(CC)C(=S)SSC(=S)N(CC)CC` [Disulfiram, tetraethylthiuram disulfide], the inhibition at 0.625 µM in assay [1] (disulfiram 0.625 μM) was 68 ± 3%. In addition, the inhibition at 1.25 µM in assay [1] (disulfiram 1.25 μM) amounted to 76 ± 6%. Besides, in assay [1] (disulfiram 2.5 μM), the inhibition at 2.5 µM came to 76 ± 5%. For the same molecule, in assay [1] (disulfiram 5.0 μM), the inhibition at 5 µM came out at 72 ± 3%. Also, the “expression of bcl-2” value in the assay with bcl-2 was “no consistent effect”.
